# Measurements from ChEMBL document CHEMBL4602605, “Fluoroquinolones structural and medicinal developments (2013-2018): Where are we now?” (Bioorg Med Chem, 2019).
# Tests used:
# Assay type in all cases: functional
# Mus musculus = assay: Analgesic activity in Swiss albino mouse assessed as acetic acid-induced writhing number at 50 mg/kg pretreated for 30 mins followed by acetic acid challenge and measured after 5 to 15 mins (reference value: 30.8 +/- 0.37)
# Paenibacillus polymyxa = assay: Antibacterial activity against Paenibacillus polymyxa NCDC 64 by single disk method
# Staphylococcus aureus [1] = assay: Antibacterial activity against Staphylococcus aureus NCDC 110 by single disk method
# Pseudomonas aeruginosa [2] = assay: Antibacterial activity against Pseudomonas aeruginosa NCDC 105 by single disk method
# Escherichia coli [3] = assay: Antibacterial activity against Escherichia coli NCDC 134 by single disk method
# Metaphire posthuma = assay: Anthelmintic activity against Pheretima posthuma assessed as mean paralysing time at 200 mg/ml
# Bacillus subtilis = assay: Antibacterial activity against Bacillus subtilis NCDC 71 by single disk method
# [4] = system: Staphylococcus epidermidis; assay: Antimicrobial activity against methicillin-resistant Staphylococcus epidermidis clinical isolate incubated for 16 hrs by CLSI based agar dilution method
# Klebsiella pneumoniae [5] = assay: Antimicrobial activity against Klebsiella pneumoniae ATCC 29522 incubated for 16 hrs by CLSI-based agar dilution method; settings: ATCC 29522, 16 h
# Staphylococcus aureus [6] = assay: Antimicrobial activity against methicillin-susceptible Staphylococcus aureus clinical isolate incubated for 16 hrs by CLSI based agar dilution method
# [7] = system: Staphylococcus epidermidis; assay: Antimicrobial activity against methicillin-susceptible Staphylococcus epidermidis clinical isolate incubated for 16 hrs by CLSI based agar dilution method
# Escherichia coli [8] = assay: Antimicrobial activity against Escherichia coli ATCC 700603 incubated for 16 hrs by CLSI-based agar dilution method; settings: ATCC 700603, 16 h
# Staphylococcus aureus [9] = assay: Antimicrobial activity against methicillin-resistant Staphylococcus aureus clinical isolate incubated for 16 hrs by CLSI based agar dilution method
# Enterobacter cloacae = assay: Antimicrobial activity against Enterobacter cloacae ATCC 43560
# [10] = system: Acinetobacter calcoaceticus; assay: Antimicrobial activity against Acinetobacter calcoaceticus ATCC 19606
# Escherichia coli [11] = assay: Antimicrobial activity against ESBL non-producing Escherichia coli ATCC 25922
# Pseudomonas aeruginosa [12] = assay: Antimicrobial activity against Pseudomonas aeruginosa ATCC 27853
# Klebsiella pneumoniae [13] = assay: Antimicrobial activity against ESBL-producing Klebsiella pneumoniae ATCC 700603
compound,measurement,setting,value
COc1c(N2CCN(CC(=O)Nc3nc4c([N+](=O)[O-])cccc4s3)C(C)C2)c(F)cc2c(=O)c(C(=O)O)cn(C3CC3)c12 (stereo not given),Activity,Mus musculus,1.63
same,MIC,Paenibacillus polymyxa,45 µg/mL
same,MIC,Staphylococcus aureus [1],60 µg/mL
same,MIC,Pseudomonas aeruginosa [2],75 µg/mL
same,MIC,Escherichia coli [3],65 µg/mL
same,Time,Metaphire posthuma,1.2 min
same,MIC,Bacillus subtilis,40 µg/mL
COc1c(N2CCN(C[C@H](O)Cn3cc([N+](=O)[O-])nc3C)C(C)C2)c(F)cc2c(=O)c(C(=O)O)cn(C3CC3)c12 (stereo not given in full),MIC,[4],32 µg/mL
same,MIC,Klebsiella pneumoniae [5],32 µg/mL
same,MIC,Staphylococcus aureus [6],32 µg/mL
same,MIC,[7],32 µg/mL
same,MIC,Escherichia coli [8],32 µg/mL
same,MIC,Staphylococcus aureus [9],16 µg/mL
COc1cc(-c2nn(CN3CCN(c4cc5c(cc4F)c(=O)c(C(=O)O)cn5[C@@H]4C[C@@H]4F)CC3)c(=S)n2-c2ccccc2)cc(OC)c1OC,MIC,Enterobacter cloacae,≤ 0.04 µM
same,MIC,[10],5.68 µM
same,MIC,Escherichia coli [11],≤ 0.04 µM
same,MIC,Pseudomonas aeruginosa [12],0.71 µM
same,MIC,Klebsiella pneumoniae [13],1.42 µM
O=C(O)c1cn([C@@H]2C[C@@H]2F)c2cc(N3CCN(Cn4nc(-c5ccncc5)n(-c5ccccc5)c4=S)CC3)c(F)cc2c1=O,MIC,Enterobacter cloacae,≤ 0.05 µM
same,MIC,[10],13 µM
same,MIC,Escherichia coli [11],0.1 µM
same,MIC,Pseudomonas aeruginosa [12],3.25 µM
same,MIC,Klebsiella pneumoniae [13],3.25 µM
O=C(O)c1cn(C2CC2)c2nc(N3CCN(CC(O)Cn4cc([N+](=O)[O-])nc4Cl)CC3)c(F)cc2c1=O (stereo not given),MIC,[4],0.125 µg/mL
same,MIC,Klebsiella pneumoniae [5],> 32 µg/mL
same,MIC,Staphylococcus aureus [6],4 µg/mL
same,MIC,[7],2 µg/mL
same,MIC,Escherichia coli [8],16 µg/mL
same,MIC,Staphylococcus aureus [9],16 µg/mL
CCn1cc(C(=O)O)c(=O)c2cc(F)c(N3CCN(CC(=O)Nc4nc5c(Cl)ccc(Cl)c5s4)CC3)cc21,Activity,Mus musculus,17.4
same,MIC,Paenibacillus polymyxa,15 µg/mL
same,MIC,Staphylococcus aureus [1],40 µg/mL
same,MIC,Pseudomonas aeruginosa [2],30 µg/mL
same,MIC,Escherichia coli [3],60 µg/mL
same,Time,Metaphire posthuma,26.8 min
same,MIC,Bacillus subtilis,20 µg/mL
CCn1cc(C(=O)O)c(=O)c2cc(F)c(N3CCN(CC(=O)Nc4nc5ccc(Cl)cc5s4)CC3)cc21,Activity,Mus musculus,15.2
same,MIC,Paenibacillus polymyxa,25 µg/mL
same,MIC,Staphylococcus aureus [1],15 µg/mL
same,MIC,Pseudomonas aeruginosa [2],10 µg/mL
same,MIC,Escherichia coli [3],50 µg/mL
same,Time,Metaphire posthuma,23.6 min
same,MIC,Bacillus subtilis,2 µg/mL
COc1c(N2CCN(CC(=O)Nc3nc4c(F)cccc4s3)C(C)C2)c(F)cc2c(=O)c(C(=O)O)cn(C3CC3)c12 (stereo not given),Activity,Mus musculus,15
same,MIC,Paenibacillus polymyxa,25 µg/mL
same,MIC,Staphylococcus aureus [1],15 µg/mL
same,MIC,Pseudomonas aeruginosa [2],50 µg/mL
same,MIC,Escherichia coli [3],140 µg/mL
same,Time,Metaphire posthuma,23.6 min
same,MIC,Bacillus subtilis,70 µg/mL
COc1c(N2CCN(CC(=O)Nc3nc4c(Cl)cccc4s3)C(C)C2)c(F)cc2c(=O)c(C(=O)O)cn(C3CC3)c12 (stereo not given),Activity,Mus musculus,19.2
same,MIC,Paenibacillus polymyxa,25 µg/mL
same,MIC,Staphylococcus aureus [1],4 µg/mL
same,MIC,Pseudomonas aeruginosa [2],20 µg/mL
same,MIC,Escherichia coli [3],60 µg/mL
same,Time,Metaphire posthuma,24.6 min
same,MIC,Bacillus subtilis,75 µg/mL
O=C(CN1CCN(c2cc3c(cc2F)c(=O)c(C(=O)O)cn3C2CC2)CC1)Nc1nc2c(Cl)ccc(Cl)c2s1,Activity,Mus musculus,15.6
same,MIC,Paenibacillus polymyxa,30 µg/mL
same,MIC,Staphylococcus aureus [1],5 µg/mL
same,MIC,Pseudomonas aeruginosa [2],65 µg/mL
same,MIC,Escherichia coli [3],6 µg/mL
same,Time,Metaphire posthuma,32.6 min
same,MIC,Bacillus subtilis,10 µg/mL
Cc1cc(C)cc(-c2nn(CN3CCN(c4cc5c(cc4F)c(=O)c(C(=O)O)cn5[C@@H]4C[C@@H]4F)CC3)c(=S)n2Cc2ccccc2)c1,MIC,Enterobacter cloacae,≤ 0.04 µM
same,MIC,[10],5.81 µM
same,MIC,Escherichia coli [11],≤ 0.04 µM
same,MIC,Pseudomonas aeruginosa [12],1.45 µM
same,MIC,Klebsiella pneumoniae [13],1.45 µM
O=C(O)c1cn([C@@H]2C[C@@H]2F)c2cc(N3CCN(Cn4nc(-c5ccncc5)n(Cc5ccccc5)c4=S)CC3)c(F)cc2c1=O,MIC,Enterobacter cloacae,≤ 0.05 µM
same,MIC,[10],12.7 µM
same,MIC,Escherichia coli [11],≤ 0.05 µM
same,MIC,Pseudomonas aeruginosa [12],0.79 µM
same,MIC,Klebsiella pneumoniae [13],1.59 µM
O=C(O)c1cn([C@@H]2C[C@@H]2F)c2cc(N3CCN(Cn4nc(-c5ccccn5)n(-c5ccccc5)c4=S)CC3)c(F)cc2c1=O,MIC,Enterobacter cloacae,≤ 0.05 µM
same,MIC,[10],6.5 µM
same,MIC,Escherichia coli [11],≤ 0.05 µM
same,MIC,Pseudomonas aeruginosa [12],1.63 µM
same,MIC,Klebsiella pneumoniae [13],1.63 µM
CCn1cc(C(=O)O)c(=O)c2cc(F)c(N3CCN(CC(=O)Nc4nc5ccc(F)cc5s4)CC3)cc21,Activity,Mus musculus,18.6
same,MIC,Paenibacillus polymyxa,55 µg/mL
same,MIC,Staphylococcus aureus [1],45 µg/mL
same,MIC,Pseudomonas aeruginosa [2],40 µg/mL
same,MIC,Escherichia coli [3],35 µg/mL
same,Time,Metaphire posthuma,23.6 min
same,MIC,Bacillus subtilis,65 µg/mL
Cc1ccc2nc(NC(=O)CN3CCN(c4cc5c(cc4F)c(=O)c(C(=O)O)cn5C4CC4)CC3)sc2c1,Activity,Mus musculus,16.2
same,MIC,Paenibacillus polymyxa,110 µg/mL
same,MIC,Staphylococcus aureus [1],40 µg/mL
same,MIC,Pseudomonas aeruginosa [2],45 µg/mL
same,MIC,Escherichia coli [3],20 µg/mL
same,Time,Metaphire posthuma,23.2 min
same,MIC,Bacillus subtilis,35 µg/mL
O=C(CN1CCN(c2cc3c(cc2F)c(=O)c(C(=O)O)cn3C2CC2)CC1)Nc1nc2ccc([N+](=O)[O-])cc2s1,Activity,Mus musculus,14.2
same,MIC,Paenibacillus polymyxa,55 µg/mL
same,MIC,Staphylococcus aureus [1],50 µg/mL
same,MIC,Pseudomonas aeruginosa [2],45 µg/mL
same,MIC,Escherichia coli [3],35 µg/mL
same,Time,Metaphire posthuma,22.8 min
same,MIC,Bacillus subtilis,25 µg/mL
